Entries after “also recorded” stand apart in the source; their conditions may differ.
Legend:
BTK [1] = target: T1, BTK (Homo sapiens, UniProt Q06187); assay: PK/PD model fit and simulation of BTK occupancy and pBTK inhibition; conditions: for BTK resynthesis rate (modeled estimate): 15 mg QD
BTK [2] = target: T1, BTK; assay: p-BTK after ex vivo BCR stimulation in CD19+/CD5+ CLL tumor cells (phospho-flow cytometry); conditions: CLL patients on oral treatment
S6 phosphorylation = assay: Basal and anti-IgM induced S6 phosphorylation in splenocytes after oral dosing of mice; type: in vivo, mouse; conditions: single oral 25 mg/kg; rank order Formula (II)>ibrutinib>Formula (XVII)
Method: B cell stimulation through the B cell receptor (BCR) with antibodies (e.g., anti-IgM) results in the activation of BTK and subsequent cellular changes, including the upregulation of various cell surface receptors. Measuring the inhibition of BCR induced protein phosphorylation downstream of Btk, and the inhibition of surface receptor upregulation provides a way to assess the Btk inhibitor activity. In the first study, the BTK target occupancy in splenocytes was measured over time, providing evidence for BTK resynthesis in the tissue compartment of interest.
Mice were sacrificed at 3, 6, 12, 18, and 24 hours after treatment with the BTK inhibitors (FIG. 27A, FIG. 27B, and FIG. 27C). Spleens were harvested and splenocyte preparations were made for flow cytometry analysis of B cell functions. Fresh or cryopreserved splenocytes were cultured with a-IgM to stimulate BCR, and the up-regulation of CD69, an early functional marker of B cell activation, was analyzed by flow cytometry.
A downstream marker of BTK activity, S6 phosphorylation, was also monitored in this study. […] In a second study, the effects of another inhibitor of BTK that covalently inactivates the kinase, Formula (XXI), were compared with Formula (II) to evaluate the return of BCR function and B cell activation, as illustrated in FIG. 29A and FIG. 29B.

[3] = system: BCR signaling through BTK; assay: Anti-IgM induced CD86 and CD69 on splenocyte B cells of CIA mice; type: in vivo, mouse; conditions: splenocytes 3 hr after last dosing on day 14
Method: (§1) FIG. 45 illustrates changes in a functional measure of BCR signalling through the CD86 marker. Mouse splenocytes were isolated from spleens from mice that were part of the mouse CIA study semi-therapeutic protocol, 3 hr after the last dosing on day 14 of the treatment and cryopreserved. After thawing, inhibition of anti-IgM-induced PD markers CD86 and CD69 on mouse splenocyte B cells were measured. Error bars represent the standard deviation for the 3 sets of splenocytes analyzed.
as §1, with “FIG. 46” for “FIG. 45”, “the CD69” for “the CD86”
Inhibition of the BCR signaling through BTK was evaluated by ex vivo stimulation of splenocytes using IgM and evaluation of CD86 and CD69 as functional responses of BCR stimulation.

psoriasis = assay: Clinical observation of psoriasis in CLL/SLL study subjects; type: in vivo, human
Description: Clinical studies have shown that targeting the BCR signaling pathway by inhibiting BTK produces significant clinical benefit in patients with various types of leukemias and lymphomas. Formula (II) achieves significant oral bioavailability and potency, and has favorable preclinical characteristics, as described above. The purpose of this study is to evaluate the safety and efficacy of the second generation BTK inhibitor of Formula (II) in treating subjects with chronic lymphocytic leukemia (CLL) and small lymphocytic lymphoma (SLL). The primary objectives of the clinical study are as follows: […] The secondary objective of the clinical study is to evaluate tumor responses in patients treated with Formula (II). In addition, effects of Formula (II) on other patient characteristics, such as dermatoses, were evaluated for particular patients enrolled in the study. This study is a multicenter, open-label, nonrandomized, sequential group, dose escalation study. The following dose cohorts are evaluated: The study scheme is a sequential cohort escalation. Each cohort consists of six subjects. The sample size of the study is 24 to 36 subjects, depending on dose escalation into subsequent cohorts. Cohort 1 (N=6) consists of Formula (II), 100 mg QD for 28 days. Cohort 2 (N=6) consists of Formula (II), 175 mg QD for 28 days. Cohort 3 (N=6) consists of Formula (II), 250 mg QD for 28 days. Cohort 4 (N=6) consists of Formula (II), 350 mg QD for 28 days. Cohort 5 (N=6) consists of Formula (II), 450 mg QD for 28 days. Cohort 6 (N=6) consists of Formula (II), at a dose to be determined QD for 28 days. The dose level for Cohort 6 will be determined based on the safety and efficacy of Cohorts 1 to 5, and will not exceed 900 mg/day. […] Treatment with oral Formula (II) may be continued for greater than 28 days until disease progression or an unacceptable drug-related toxicity occurs. The dosage form and strength of Formula (II) used in the clinical study is a hard gelatin capsules prepared using standard pharmaceutical grade excipients (microcrystalline cellulose) and containing 25 mg of Formula (II) each. The color of the capsules is Swedish orange. The route of administration is oral (per os, or PO). […] They were treated over time with several systemic therapies including etanercept, adalimumab, and a 2010 clinical study of an experimental agent. They initially responded to etanerceptbut continued to have flares, and was under the care of a dermatologist prior to enrolling in the clinical study. Their treatment history included topical medications, and recently included Taclonex (calcipotriene/betamethasone diproprionate), without much improvement in skin lesions.

T1 sequence (Q06187 whole entry): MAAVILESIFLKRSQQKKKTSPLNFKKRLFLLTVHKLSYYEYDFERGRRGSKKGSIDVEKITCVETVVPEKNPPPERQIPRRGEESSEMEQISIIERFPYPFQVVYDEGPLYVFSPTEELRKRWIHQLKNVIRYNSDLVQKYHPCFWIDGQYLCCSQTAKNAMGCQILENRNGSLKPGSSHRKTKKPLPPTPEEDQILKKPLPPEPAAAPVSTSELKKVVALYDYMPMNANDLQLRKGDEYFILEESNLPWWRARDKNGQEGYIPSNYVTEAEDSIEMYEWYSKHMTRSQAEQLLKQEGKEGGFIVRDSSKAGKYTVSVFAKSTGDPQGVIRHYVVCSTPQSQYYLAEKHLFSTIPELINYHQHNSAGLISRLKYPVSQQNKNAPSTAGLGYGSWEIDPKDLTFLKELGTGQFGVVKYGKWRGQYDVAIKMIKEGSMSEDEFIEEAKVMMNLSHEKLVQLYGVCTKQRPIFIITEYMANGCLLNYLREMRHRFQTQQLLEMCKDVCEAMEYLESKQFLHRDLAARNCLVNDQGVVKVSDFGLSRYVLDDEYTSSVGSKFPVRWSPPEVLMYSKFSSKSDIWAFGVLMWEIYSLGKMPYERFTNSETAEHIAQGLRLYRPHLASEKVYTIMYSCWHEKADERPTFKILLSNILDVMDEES

For `CC#CC(=O)N1CCC[C@H]1c1nc(-c2ccc(C(=O)Nc3ccccn3)cc2)c2c(N)nccn12` [Formula (II), (S)-4-(8-amino-3-(1-(but-2-ynoyl)pyrrolidin-2-yl)imidazo[1,5-a]pyrazin-1-yl)-N-(pyridin-2-yl)benzamide], the “k4,1 (model rate constant)” value (BTK [1]; 15 mg QD model fit) was 0.91, the “BTK resynthesis rate (modeled estimate)” value (BTK [1]; after the first 48 hours) was 0.04 and the “BTK resynthesis rate (modeled estimate)” value (BTK [1]; first 48 hours) was 0.1. For the same molecule, the “BCR-mediated signaling through BTK (p-BTK after ex vivo BCR stimulation)” value (BTK [2]) was “significantly inhibited; also recorded: decreased BTK activation”, the “basal state and anti-IgM induced S6 phosphorylation” value (S6 phosphorylation) was “inhibited both basal state and anti-IgM induced S6 phosphorylation” and the “BCR-mediated signaling (anti-IgM induced CD86 and CD69)” value [3] was “dose-responsive decreases in BCR-mediated signaling”. For the same molecule, the “Psoriasis Area and Severity Index achieved (PASI90)” value (psoriasis; Subject 1, CLL patient with severe psoriasis, 10 month visit) was 90%, the “serum IL-6, MIP-1α, MCP-1β, TNFA, TARC, CXCLS, CD40L, TRAIL, EGF, CXCL1 relative to baseline” value (psoriasis; Subject 1, Day 28 of treatment) was “decreased” and the psoriatic skin disease (psoriasis; Subject 1, by Cycle 10 (10 months on treatment)) was “their skin was clear”. For the same molecule, the moderate-to-severe plaque psoriasis (psoriasis; Subject 2, after initiation of treatment) was “cleared quickly”.

Source: patent US20170143712A1, “Methods of Treating Cancers, Immune and Autoimmune Diseases, and Inflammatory Diseases Based on BTK Occupancy and BTK Resynthesis Rate” (Acerta Pharma B.V., priority 2014, published 2017)
